Entries after “also recorded” stand apart in the source; their conditions may differ.
Experiments:
Caco2 = Caco2 permeability; assay type: in vitro ADME; conditions: Conc. 100 uM
LSCs = assay: Colony forming capacity (CFC) of iMLL-AF9 LT-HSC derived LSCs; assay type: cell-based, mouse; conditions: 200 nM Ara-C or 30 μM 1632, 48 h
Description: In addition, Lin28 was independently found to be a key driver in MLL-associated leukemias (56). In order to further characterize the role of Lin28/let-7 in regulating AML, LSC proliferation and therapy resistance in vivo, we used a doxycycline (DOX) inducible, transgenic mouse model for MLL-AF9-driven AML (iMLL-AF9 (57)). In this model, long-term HSC (LT-HSC, Lin^−CD34^−[…] c-Kit^+ CD150^+ CD48^−) derived AML blasts closely mirror an LSC-like phenotype resulting in a particularly aggressive, Cytarabine (Ara-C) resistant AML (57). […] Moreover, relapsed AML cells arising from rLSCs after treatment with Ara-C (100 mg/kg) at d+60 were even further enriched in Lin28b expression (FIG. 2B). Additionally, levels of both, let-7a and let-7b miRNAs, negatively correlated with increased Lin28b in rLSCs (FIG. 2C) (10, 39). Our findings are consistent with papers reporting that increased Lin28 correlates with disease recurrence post chemotherapy in colon and liver cancer stem cells (22, 58).
As Lin28 is overexpressed human AML, LSCs and rLSCs, we sought to determine if genetic Lin28b or pharmacologic Lin28/let-7 inhibition via LN1632 can abrogate proliferation of LSCs and thus overcome their therapy resistance. […]

[1] = test system: THP-1 cells (high LIN28B); assay: Subcutaneous THP-1 AML xenograft; assay type: in vivo, NSG / NSGS mice; conditions: for Tumor growth: 100 mg/kg
Experimental: Subsequently, the tumor suppressive effect of LN1632 in cancer in vivo was assessed. High LIN28B expressing THP-1 AML cells (2×10^6 cells) were implanted in NSGS mice (cell suspension in matrigel, 3:1) and at d+12 or d+8 (tumor size=50 mm^2) injection of LN1632 IP at 100 mg/kg daily was initiated. […] The effect of LN1632 in a systemic Kasumi-1 xenograft was also assessed. […] The effects of LN1632 to cytarabine chemotherapy (Ara-C) was also compared, as previously described (74). THP-1 AML cells were subcutaneously implanted (1.5×10^6 cells, high LIN28B) in NSGS mice. Daily IP injections with 100 mg/kg LN1632, 60 mg/kg cytarabine chemotherapy (Ara-C), or vehicle was started at +d3 post AML cell implantation and continued until the vehicle group reached maximal allowed tumor size (250 mm^2).

MOLM-13 (no LIN28B) = assay: Subcutaneous MOLM-13 AML xenograft; assay type: in vivo; conditions: MOLM-13 subQ in NSG mice, 100 mg/kg IP every other day
Experimental: Thus, we subcutaneously (subQ) implanted THP-1 (high LIN28B) cells or MOLM-13 (no LIN28B) into NSG mice and 12 d later (tumor size=40 mm^2) started administration of 1632 IP at 100 mg/kg every other day.

[2] = test system: let-7 target genes / MYC target gene signatures; assay: RNA sequencing in Kasumi-1 cells; assay type: cell-based, human; conditions: 40 μM or 100 μM LN1632 vs control
Description: To measure the complete degree to which LN1632 regulates gene expression, we carried out RNA sequencing (RNAseq) in LSC-like Kasumi-1 cells. […] Importantly, we confirmed this gene expression pattern in primary AML cells from three relapsed patients (validated for LIN28B overexpression compared to healthy WBM). […] This is important because NFκB1, regulated by let-7 through IL6 (23) is, together with other BCL-2 family members (BAX, BCL2L15 and BMF, FIG. 5A), a well characterized gene associated with unique properties of LSC survival and AML relapse (45, 59, 60). […] We next explored the effect of LN1632 on primary AML cells.
To determine the degree to which LN1632 regulates gene expression, RNA sequencing was performed in human Kasumi-1 AML cells. […] In addition, ingenuity pathway analysis predicted suppression of upstream signaling molecules IL6 and MYC (FIG. 9C).

AML pt #13 cells = assay: Engraftment of ex vivo treated primary AML pt #13 cells in NSGS; design: species or system NSGS mice; conditions: ex vivo treatment 120 μM for 72 h, 12 weeks
PRPF31 [3] = target: T1, PRPF31 (Homo sapiens, UniProt Q8WWY3); assay: MDA-MB-231 TNBC cell numbers with PRPF31 overexpression or silencing; assay type: cell-based; design: mGFP (C); host or cells: MDA-MB-231 TNBC cells; conditions: 100 μM LN1632
T1 sequence (Q8WWY3 1-499): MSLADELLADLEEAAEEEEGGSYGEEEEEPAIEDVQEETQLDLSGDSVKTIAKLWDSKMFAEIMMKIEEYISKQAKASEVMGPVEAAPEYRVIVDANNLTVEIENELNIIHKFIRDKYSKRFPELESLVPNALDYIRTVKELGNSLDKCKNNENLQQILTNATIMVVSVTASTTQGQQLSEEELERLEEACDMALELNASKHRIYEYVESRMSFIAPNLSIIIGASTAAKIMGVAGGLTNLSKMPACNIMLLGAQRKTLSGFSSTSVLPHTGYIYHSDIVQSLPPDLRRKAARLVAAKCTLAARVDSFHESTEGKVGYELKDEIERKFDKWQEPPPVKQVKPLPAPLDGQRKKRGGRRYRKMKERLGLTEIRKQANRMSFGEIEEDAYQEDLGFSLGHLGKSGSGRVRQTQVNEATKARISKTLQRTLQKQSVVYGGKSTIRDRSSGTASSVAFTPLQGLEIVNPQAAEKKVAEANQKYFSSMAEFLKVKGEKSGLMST
Description: MDA-MB-231 TNBC cells were used to evaluate whether LN1632 targets PRPF31.

PRPF31 [4] = target: T1, PRPF31; assay: MS-CETSA and IP-MS target engagement; assay type: binding; design: endogenous in cells; host or cells: Kasumi-1 cell lysate
Experimental: Mass spectrometry cellular thermal shift assay (MS-CETSA, FIG. 12A) as described in (75), and immunoprecipitation using biotinylated LN1632 (FIG. 12B) were performed. […] PRPF31 is recruited to introns where its highly conserved Nop-domain coordinates the U4 snRNA—15.5K protein interaction. Subsequently, PRPF31 stabilizes the U4/U6.U5 tri-snRNP by concomitantly interacting with PRPF6 and induces the transition of the spliceosomal complex to the activated state (78).

CC(=O)N(C)c1cccc(-c2ccc3nnc(C)n3n2)c1 [LN1632]
Caco2 Mean A-B % Recovery (Caco2): 89.4% | Caco2 efflux ratio (Caco2): 1.08 | Caco2 permeability Papp A-B (Caco2): A-B: 20.9 10^−6 cm/s | Caco2 permeability Papp B-A (Caco2): B-A: 22.7 10^−6 cm/s | Colony forming capacity cell numbers (CFCs) of LSCs (LSCs): significantly abrogated CFCs of LSCs | Tumor growth ([1]; THP-1 subQ in NSG mice, 100 mg/kg IP every other day): significantly slowed tumor growth; also recorded: significantly reduced tumor growth | Tumor growth ([1]; THP-1 subQ in NSGS mice, 100 mg/kg IP daily): significantly reduced tumor growth 19 days post injection; also recorded: significantly slowed tumor growth | AML tumor proliferation, LN1632 vs Ara-C ([1]; THP-1 subQ in NSGS mice, daily IP 100 mg/kg LN1632 or 60 mg/kg Ara-C from +d3): increased inhibition of AML tumor proliferation compared to Ara-C or vehicle treated mice; also recorded: inhibited proliferation | Tumor growth (MOLM-13 (no LIN28B)): minimal effect on tumor growth; also recorded: significantly reduced tumor growth in THP-1 but not MOLM-13 | Gene expression (RNAseq) [2]: significant downregulation of a panoply of direct let-7 target genes; also recorded: significantly downregulated genes of the HALLMARK_MYC-TARGETS_V1 gene signature | AML repopulation capability in vivo (AML pt #13 cells): inhibited AML repopulation capability in vivo | Anti-proliferative / pro-apoptotic effect under PRPF31 overexpression or shRNA silencing (PRPF31 [3]): rescued anti-proliferative effects of LN1632; also recorded: abrogated pro-apoptotic effects of LN1632 | Interaction partners by MS-CETSA and immunoprecipitation (PRPF31 [4]): interacts with additional RNA-binding proteins, in particular pre-mRNA processing factor 31 | Tm shift (MS-CETSA) (PRPF31 [4]; Kasumi-1 cell lysate): induces Tm shift of endogenous PRPF31 | IP-MS capture with biotinylated LN1632, competitive elution (PRPF31 [4]; n=3): captures PRPF31

Reference: US20230059009A1, “INHIBITORS OF LIN28 AND METHODS OF USE THEREOF” (The Regents of the University of California, priority 2019, published 2023)
